One series concerns SW1736 cells. Kind of series: MTT cell viability assay, SW1736 cells. It is filed as cell-based, human. Conditions: for ED50 SW1736: MTT test, 72 h, mean ± SD. From the text: (§1) Anaplastic thyroid cancer (ATC), while rare, remains one of the deadliest cancers known, showing a median overall survival of 3 months. […] Several therapeutic strategies were thus developed, ranging from more classical methods such as inhibition of cyclin-dependent kinases, to more innovative ones including the use of epigenetic drugs. However, so far, all efforts made in the search for new molecules that can counteract the very high mortality of ATC have often been thwarted by the relative ease with which cancer cells are able to gain drug resistance. For these reasons, the development of new molecules that can increase ATC treatment options is crucial in an effort to extend the life expectancy. A preliminary assessment of the effects of the compounds under consideration involved studying their effectiveness in terms of cell viability. In order to evaluate the antitumor efficacy of ruthenium compounds, they were administered to ATC cells (SW1736 and 8505C) and to a non-tumorigenic thyroid cell line (Nthy-ori 3-1) at increasing doses, and an MTT assay was performed. Once the effects in terms of cell viability were observed, the effective dose 50 (ED50) was calculated by interpolation of the scatter plot curve (dose/effect). The two lines of ATC were similarly sensitive to each of the compounds tested, with the ED50 spanning from 0.3 to 8 µM, calculated at a 72 h time point (Table 2).
(§2) In this study, we used two different human anaplastic thyroid cancer cell lines (SW1736 and 8505C) and a non-tumorigenic thyroid cell line (Nthy-ori 3-1) that were grown as previously described. All cell lines have been validated by short tandem repeat and tested for being mycoplasma-free. Cells were grown in RPMI 1640 medium (EuroClone, Milan, Italy) supplemented with 10% fetal bovine serum (Gibco Invitrogen, Milan, Italy), 2 mM L-glutamine (EuroClone, Milan, Italy), and […] gentamicin (Gibco Invitrogen, Milan, Italy). Cells were maintained in a humidified incubator (5% CO2, 37 °C).
(§3) In order to test cell viability, we applied the methylthiazolyldiphenyl-tetrazolium bromide (MTT) assay as previously described. SW1736, 8505C and Nthy-ori 3-1cells (3000 cells/well) were plated onto 96-well plates in 200 μL medium/well and were allowed to attach to the plate for 24 h (t0). Plates were then treated either with DMSO or with each of the different compounds at different concentrations for 72 h. Then, 4 mg/mL MTT (Merck, Darmstadt, Germany) was added to the cell medium, and cells were cultivated for another 4 h in the incubator. The supernatant was removed, 100 μL/well of DMSO (Merck, Darmstadt, Germany) was added, and the absorbance at 570 nm was measured. All experiments were run sixfold and cell viability was expressed as a fold change compared to control. ED50 was calculated by interpolation of the scatter plot obtained by crossing each dose with its own observed effect.

A further series concerns Nthy-ori 3-1 cells. In words: MTT cell viability assay, non-tumorigenic Nthy-ori 3-1 cells. It is filed as cell-based, human. Particulars: MTT test, 72 h, nontumorigenic thyroid cells, mean ± SD.
From the text: as §1, §2, §3

For a further series, the system named is 8505C cells. In words: MTT cell viability assay, 8505C cells. It counts as cell-based, human. Conditions: MTT test, 72 h, mean ± SD.
From the text: as §1, §2, §3

For series [1], the system named is anaplastic thyroid cancer 8505C and SW1736 cell lines. In words: MTT cell viability assay, ATC cell lines taken together. Conditions: 72 h. It counts as cell-based.
From the text: as §1
In this study, we used two different human anaplastic thyroid cancer cell lines (SW1736 and 8505C) and a non-tumorigenic thyroid cell line (Nthy-ori 3-1) that were grown as previously described. […]
In order to test cell viability, we applied the methylthiazolyldiphenyl-tetrazolium bromide (MTT) assay as previously described. […] The supernatant was removed, 100 μL/well of DMSO (Merck, Darmstadt, Germany) was added, and the absorbance at 570 nm was measured. All experiments were run sixfold and cell viability was expressed as a fold change compared to control. ED50 was calculated by interpolation of the scatter plot obtained by crossing each dose with its own observed effect.

“And” between values parts separate entries of the source, which are not always exact repeats. Identical values can stand only once. “Also recorded” adds a separate entry of the source.

Results on eight compounds are retold here after publication PMC11085208, “Cyclometalated and NNN Terpyridine Ruthenium Photocatalysts and Their Cytotoxic Activity” (Molecules, 2024).

On to `N.N.[Cl][Pt][Cl]` [Cisplatin, reference compound], for which the “ED50 SW1736” value in the series on SW1736 cells is 6.40 ± 1.54 µM. Also, in the series with Nthy-ori 3-1 cells, the “ED50 Nthy-ori 3-1” value came out at 11.28 ± 0.96 µM. Besides, the “ED50 8505C” value with 8505C cells was determined as 5.20 ± 1.82 µM.

Consider “[Ru(η^1-OAc)(NNN-tpy)((R,R)-Skewphos)]OAc [Complex 6]”, for which the “ED50 SW1736” value with SW1736 cells was 1.39 µM and 1.39 ± 0.14 µM. The “ED50 Nthy-ori 3-1” value in the series on Nthy-ori 3-1 cells is recorded as 4.38 ± 0.13 µM. For the same compound, the “ED50 8505C” value in the series on 8505C cells was found to be 1.88 ± 0.21 µM.

Consider “[Ru(η^1-OAc)(NNN-tpy)((S,S)-Skewphos)]OAc [Complex 7]”, for which, in the series with SW1736 cells (ED50 0.31 vs 1.39 µM), the “cytotoxicity (ED50) compared to the enantiomer 6” value is “four times lower; also recorded: four times higher”. In addition, the “ED50 SW1736” value in the series with SW1736 cells is 0.31 µM and 0.31 ± 0.11 µM. In the series with Nthy-ori 3-1 cells, the “ED50 Nthy-ori 3-1” value was 4.85 ± 0.17 µM. For the same compound, the “ED50 8505C” value with 8505C cells is on record as 0.75 ± 0.09 µM.

As to “[Ru(η^2-OAc)(NC-tpy)((R,R)-Skewphos)] [Complex 4]”, in the series on SW1736 cells, the “ED50 SW1736” value is on record as 2.18 ± 0.16 µM. Besides, in the series on Nthy-ori 3-1 cells, the “ED50 Nthy-ori 3-1” value is given as 3.88 ± 0.31 µM. For the same compound, the “cytotoxicity (in words)” value in series [1] is given as “moderate cytotoxicity”. Moreover, in the series on 8505C cells, the “ED50 8505C” value is recorded as 1.95 ± 0.23 µM.

As to “[Ru(η^2-OAc)(NC-tpy)((S,S)-Skewphos)] [Complex 5]”, the “ED50 SW1736” value in the series on SW1736 cells is on record as 2.11 ± 011 µM. For the same compound, the “ED50 Nthy-ori 3-1” value in the series on Nthy-ori 3-1 cells is 4.18 ± 0.09 µM. Moreover, the “cytotoxicity (in words)” value in series [1] is “moderate cytotoxicity”. The “ED50 8505C” value with 8505C cells was found to be 2.06 ± 0.26 µM.

As for [Ru(η^2-OAc)(NC-tpy)(dppb)] [Complex 1], the “ED50 SW1736” value in the series with SW1736 cells is given as 8.53 ± 0.98 µM. Moreover, the “ED50 Nthy-ori 3-1” value in the series with Nthy-ori 3-1 cells was 10.59 ± 1.28 µM. For the same compound, the “cytotoxicity (in words)” value in series [1] was “moderate cytotoxicity”. Besides, in the series on 8505C cells, the “ED50 8505C” value was found to be 7.73 ± 1.02 µM.

Regarding “[RuCl(NNN-tpy)((R,R)-Skewphos)]Cl [reference compound]”, the “ED50 SW1736” value in the series with SW1736 cells turned out to be 3.36 ± 0.42 µM. Further, the “ED50 Nthy-ori 3-1” value in the series with Nthy-ori 3-1 cells was found to be 6.91 ± 0.62 µM. In the series with 8505C cells, the “ED50 8505C” value worked out at 4.57 ± 0.53 µM.

In the case of “[RuCl(NNN-tpy)((S,S)-Skewphos)]PF6 [reference compound]”, the “ED50 SW1736” value with SW1736 cells is 2.63 µM and 2.63 ± 0.14 µM. The “ED50 Nthy-ori 3-1” value in the series with Nthy-ori 3-1 cells is reported as 7.21 ± 0.74 µM. In the series with 8505C cells, the “ED50 8505C” value was 2.25 ± 0.17 µM.
